# Test results as given in US12485169B2, “Compounds” (GREY WOLF THERAPEUTICS LIMITED, priority 2018, dated 2025).
# Target: T1, Purified ERAP1 (37-941)-10His (ERAP1) (Homo sapiens, UniProt Q9NZ08)
# T1 construct: Purified ERAP1 (37-941)-10His (ERAP1)
# Test: ERAP1 mediated hydrolysis of an amide substrate (10-mer inhibition assay), biochemical system
# Settings: 10-mer substrate, 23° C., 1 h, excitation 279 nm / emission 355 nm; read-out: IC50 vs Decapeptide WRVYEKC(Dnp)ALK-acid (where Dnp is Dinitrophenyl maleimide) (10-mer)
# Experimental: However, as ERAP1 hydrolyses the N-terminal amide bond and tryptophan is released this internal quenching is lost and the reaction is monitored by the increase in tryptophan fluorescence over the course of the assay. For the purposes of this application this assay is referred to as the “10mer inhibition assay” and compound potencies are calculated and expressed as IC50 as would be familiar to a person skilled in the art.
# Biological Assay 1: ERAP1 Mediated Hydrolysis of an Amide Substrate Measured in a Biochemical System
# Decapeptide WRVYEKC(Dnp)ALK-acid (where Dnp is Dinitrophenyl maleimide) (10-mer) L-Leucine 7-amido-4-methylcoumarin (L-AMC)
# 12.5 μL ERAP1 enzyme in 1×AB was combined with 250 nL test compound in DMSO. […] For detection, plates were read at excitation 365 nm and emission 442 nm (L-AMC) or excitation 279 nm and emission 355 nm (10-mer).
# T1 sequence (Q9NZ08 37-941): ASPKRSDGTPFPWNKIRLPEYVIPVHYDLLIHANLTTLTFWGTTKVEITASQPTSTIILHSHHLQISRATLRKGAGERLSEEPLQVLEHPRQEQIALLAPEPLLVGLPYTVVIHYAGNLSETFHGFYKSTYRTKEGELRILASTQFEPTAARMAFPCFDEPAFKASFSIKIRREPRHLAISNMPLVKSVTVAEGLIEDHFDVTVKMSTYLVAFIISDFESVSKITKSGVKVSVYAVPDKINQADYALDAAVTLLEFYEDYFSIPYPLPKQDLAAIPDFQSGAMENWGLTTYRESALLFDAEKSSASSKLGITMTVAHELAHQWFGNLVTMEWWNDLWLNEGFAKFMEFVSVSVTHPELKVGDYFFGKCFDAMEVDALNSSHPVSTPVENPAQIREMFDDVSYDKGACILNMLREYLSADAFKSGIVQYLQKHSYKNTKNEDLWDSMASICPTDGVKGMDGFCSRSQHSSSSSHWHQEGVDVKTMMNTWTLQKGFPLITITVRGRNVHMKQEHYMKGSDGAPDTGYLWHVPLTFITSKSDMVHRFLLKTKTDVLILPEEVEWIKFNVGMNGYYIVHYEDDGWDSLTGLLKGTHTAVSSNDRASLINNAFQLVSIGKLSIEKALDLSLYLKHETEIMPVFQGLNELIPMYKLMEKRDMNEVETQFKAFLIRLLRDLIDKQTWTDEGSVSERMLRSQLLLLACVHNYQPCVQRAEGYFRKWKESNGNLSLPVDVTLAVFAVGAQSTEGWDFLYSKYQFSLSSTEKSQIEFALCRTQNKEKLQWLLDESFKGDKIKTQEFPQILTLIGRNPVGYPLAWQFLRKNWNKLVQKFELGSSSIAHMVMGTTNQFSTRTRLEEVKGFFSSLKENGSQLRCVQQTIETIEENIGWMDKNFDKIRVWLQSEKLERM
row,SMILES,IC50 [nM]
1,"O=C(O)c1cc(S(=O)(=O)Nc2cc(C(F)(F)F)ccc2N2CCCCC2)ccc1Cl [Example 83, 2-chloro-5-(N-(2-(piperidin-1-yl)-5-(trifluoromethyl)phenyl)sulfamoyl)benzoic acid]",< 5000
2,"COc1ccc(C(=O)O)cc1S(=O)(=O)Nc1cc(C(F)(F)F)ccc1N1CCC(C)CC1 [Example 84, 4-methoxy-3-(N-(2-(4-methylpiperidin-1-yl)-5-(trifluoromethyl)phenyl)sulfamoyl)benzoic acid]",< 5000
3,"O=C(O)c1ccc(Cl)c(S(=O)(=O)Nc2cc(C(F)(F)F)ccc2N2CCCCCC2)c1 [Example 86, 3-(N-(2-(azepan-1-yl)-5-(trifluoromethyl)phenyl)sulfamoyl)-4-chlorobenzoic acid]",< 500
4,"O=C(O)c1ccc(O)c(S(=O)(=O)Nc2cc(C(F)(F)F)ccc2N2CCCCC2)c1 [Example 161, 4-hydroxy-3-(N-(2-(piperidin-1-yl)-5-(trifluoromethyl)phenyl)sulfamoyl)benzoic acid]",< 500
5,"COc1ccc(-c2nn[nH]n2)cc1S(=O)(=O)Nc1cc(C(F)(F)F)ccc1N1CCCCC1 [Example 171, 2-methoxy-N-(2-(piperidin-1-yl)-5-(trifluoromethyl)phenyl)-5-(tetrazol-5-yl)benzenesulfonamide]",< 5000
6,"COc1ccc(C(=O)O)cc1S(=O)(=O)Nc1cc(C(F)(F)F)ccc1N1CCCC(O)C1 (centres unmarked) [Example 177, 3-(N-(2-(3-hydroxypiperidin-1-yl)-5-(trifluoromethyl)phenyl)sulfamoyl)-4-methoxybenzoic acid]",< 500
7,"COc1ccc(C(=O)O)cc1S(=O)(=O)Nc1cc(C(F)(F)F)ccc1N1CC[C@H](O)C1 [Example 178, (S)-3-(N-(2-(3-hydroxypyrrolidin-1-yl)-5-(trifluoromethyl)phenyl)sulfamoyl)-4-methoxybenzoic acid]",< 5000
8,"COc1ccc(C(=O)O)cc1S(=O)(=O)Nc1cc(C(F)(F)F)ccc1N1CCCC(OC)C1 (centres unmarked) [Example 179, 4-methoxy-3-(N-(2-(3-methoxypiperidin-1-yl)-5-(trifluoromethyl)phenyl)sulfamoyl)benzoic acid]",< 500
9,"CCOC1CCN(c2ccc(C(F)(F)F)cc2NS(=O)(=O)c2cc(C(=O)O)ccc2OC)CC1 [Example 180, 3-(N-(2-(4-ethoxypiperidin-1-yl)-5-(trifluoromethyl)phenyl)sulfamoyl)-4-methoxybenzoic acid]",< 500
10,"COc1ccc(C(=O)O)cc1S(=O)(=O)Nc1cc(C(F)(F)F)ccc1N1CCC(OC)CC1 [Example 181, 4-methoxy-3-(N-(2-(4-methoxypiperidin-1-yl)-5-(trifluoromethyl)phenyl)sulfamoyl)benzoic acid]",< 500
11,"COc1ccc(C(=O)O)cc1S(=O)(=O)Nc1cc(C#N)ccc1N1CCCCC1 [Example 182, 3-(N-(5-cyano-2-(piperidin-1-yl)phenyl)sulfamoyl)-4-methoxybenzoic acid]",< 500
12,"CCc1ccc(C(=O)O)cc1S(=O)(=O)Nc1cc(C(F)(F)F)ccc1N1CC(O)C1 [Example 183, 4-ethyl-3-(N-(2-(3-hydroxyazetidin-1-yl)-5-(trifluoromethyl)phenyl)sulfamoyl)benzoic acid]",> 5000
13,"COc1ccc(C(=O)O)cc1S(=O)(=O)Nc1cc(C(F)(F)F)cc(F)c1N1CCCCC1 [Example 184, 3-(N-(3-fluoro-2-(piperidin-1-yl)-5-(trifluoromethyl)phenyl)sulfamoyl)-4-methoxybenzoic acid]",< 500
14,"COc1ccc(C(=O)O)cc1S(=O)(=O)Nc1cc(C(F)(F)F)ccc1N1CCC(O)(C2CC2)CC1 [Example 185, 3-(N-(2-(4-cyclopropyl-4-hydroxypiperidin-1-yl)-5-(trifluoromethyl)phenyl)sulfamoyl)-4-methoxybenzoic acid]",< 500
15,"COc1ccc(C(=O)O)cc1S(=O)(=O)Nc1cc(C(F)(F)F)ccc1N1CCC2(CCO2)CC1 [Example 186, 3-(N-(2-(1-oxa-7-azaspiro[3.5]nonan-7-yl)-5-(trifluoromethyl)phenyl)sulfamoyl)-4-methoxybenzoic acid]",< 500
16,"COc1ccc(C(=O)O)cc1S(=O)(=O)Nc1cc(C(F)(F)F)ccc1N1CCC(OC(C)C)CC1 [Example 187, 3-(N-(2-(4-isopropoxypiperidin-1-yl)-5-(trifluoromethyl)phenyl)sulfamoyl)-4-methoxybenzoic acid]",< 5000
17,"COc1ccc(C(=O)O)cc1S(=O)(=O)Nc1cc(C(F)(F)F)ccc1N1CC[C@@H](O)C1 [Example 188, (R)-3-(N-(2-(3-hydroxypyrrolidin-1-yl)-5-(trifluoromethyl)phenyl)sulfamoyl)-4-methoxybenzoic acid]",< 5000
18,"CCC1(O)CN(c2ccc(C(F)(F)F)cc2NS(=O)(=O)c2cc(C(=O)O)ccc2OC)C1 [Example 189, 3-(N-(2-(3-ethyl-3-hydroxyazetidin-1-yl)-5-(trifluoromethyl)phenyl)sulfamoyl)-4-methoxybenzoic acid]",> 5000

row,SMILES,IC50 [nM]
1,"O=C(O)c1ccc(C(F)(F)F)c(S(=O)(=O)Nc2cc(C(F)(F)F)ccc2N2CCCCC2)c1 [Example 200, 3-(N-(2-(piperidin-1-yl)-5-(trifluoromethyl)phenyl)sulfamoyl)-4-(trifluoromethyl)benzoic acid]",< 5000
2,"CCOc1ccc(C(=O)O)cc1S(=O)(=O)Nc1cc(C(F)(F)F)ccc1N1CCCCC1 [Example 201, 4-ethoxy-3-(N-(2-(piperidin-1-yl)-5-(trifluoromethyl)phenyl)sulfamoyl)benzoic acid]",< 500
3,"COc1ccc(C(=O)O)cc1S(=O)(=O)Nc1cc(Cl)c(Cl)cc1N1CCCCC1 [Example 202, 3-(N-(4,5-dichloro-2-(piperidin-1-yl)phenyl)sulfamoyl)-4-methoxybenzoic acid]",< 500
4,"CCc1ccc(C(=O)O)cc1S(=O)(=O)Nc1cc(C(F)(F)F)ccc1N1CCC(F)(F)CC1 [Example 203, 3-(N-(2-(4,4-difluoropiperidin-1-yl)-5-(trifluoromethyl)phenyl)sulfamoyl)-4-ethylbenzoic acid]",< 500
5,"CCc1ccc(C(=O)O)cc1S(=O)(=O)Nc1cc(C(F)(F)F)ccc1N1CCCC(F)(F)C1 [Example 204, 3-(N-(2-(3,3-difluoropiperidin-1-yl)-5-(trifluoromethyl)phenyl)sulfamoyl)-4-ethylbenzoic acid]",< 500
6,"CCc1ccc(C(=O)O)cc1S(=O)(=O)Nc1cc(C(F)(F)F)ccc1N1CCC(F)CC1 [Example 205, 4-ethyl-3-(N-(2-(4-fluoropiperidin-1-yl)-5-(trifluoromethyl)phenyl)sulfamoyl)benzoic acid]",< 500
7,"COc1ccc(C(=O)O)cc1S(=O)(=O)Nc1cc(C(F)(F)F)ccc1N1CCC(F)CC1 [Example 206, 3-(N-(2-(4-fluoropiperidin-1-yl)-5-(trifluoromethyl)phenyl)sulfamoyl)-4-methoxybenzoic acid]",< 500
8,"COc1ccc(C(=O)O)cc1S(=O)(=O)Nc1cc(S(C)(=O)=O)ccc1N1CCCCC1 [Example 207, 4-methoxy-3-(N-(5-(methylsulfonyl)-2-(piperidin-1-yl)phenyl)sulfamoyl)benzoic acid]",< 500
9,"COc1ccc(C(=O)O)cc1S(=O)(=O)Nc1cc(C(F)(F)F)ccc1N1CCC[C@@H](F)C1 [Example 208, I-3-(N-(2-(3-fluoropiperidin-1-yl)-5-(trifluoromethyl)phenyl)sulfamoyl)-4-methoxybenzoic acid]",< 500
10,"COc1ccc(C(=O)O)cc1S(=O)(=O)Nc1cc(C(F)(F)F)ccc1N1CCC[C@H](F)C1 [Example 209, (S)-3-(N-(2-(3-fluoropiperidin-1-yl)-5-(trifluoromethyl)phenyl)sulfamoyl)-4-methoxybenzoic acid]",< 500
11,"CCc1ccc(C(=O)O)cc1S(=O)(=O)Nc1cc(C(F)(F)F)ccc1N1CCC[C@H](F)C1 [Example 210, (S)-4-ethyl-3-(N-(2-(3-fluoropiperidin-1-yl)-5-(trifluoromethyl)phenyl)sulfamoyl)benzoic acid]",< 500
12,"CCc1ccc(C(=O)O)cc1S(=O)(=O)Nc1cc(C(F)(F)F)ccc1N1CCC[C@@H](F)C1 [Example 211, I-4-ethyl-3-(N-(2-(3-fluoropiperidin-1-yl)-5-(trifluoromethyl)phenyl)sulfamoyl)benzoic acid]",< 500
13,"COc1ccc(C(=O)O)cc1S(=O)(=O)Nc1cc(C(F)F)ccc1N1CCCCC1 [Example 212, 3-(N-(5-(difluoromethyl)-2-(piperidin-1-yl)phenyl)sulfamoyl)-4-methoxybenzoic acid]",< 500
14,"CCc1ccc(C(=O)O)cc1S(=O)(=O)Nc1cc(C(F)F)ccc1N1CCCCC1 [Example 213, 3-(N-(5-(difluoromethyl)-2-(piperidin-1-yl)phenyl)sulfamoyl)-4-ethylbenzoic acid]",< 500
15,"COc1ccc(C(=O)O)cc1S(=O)(=O)Nc1cc(-n2cnnn2)ccc1N1CCCCC1 [Example 214, 4-methoxy-3-(N-(2-(piperidin-1-yl)-5-(1H-tetrazol-1-yl)phenyl)sulfamoyl)benzoic acid]",< 500
16,"CCc1ccc(C(=O)O)cc1S(=O)(=O)Nc1cc(C#N)ccc1N1CCCCC1 [Example 215, 3-(N-(5-cyano-2-(piperidin-1-yl)phenyl)sulfamoyl)-4-ethylbenzoic acid]",< 500
17,"CCc1ccc(C(=O)O)cc1S(=O)(=O)Nc1cc(Cl)ccc1N1CCCCC1 [Example 216, 3-(N-(5-chloro-2-(piperidin-1-yl)phenyl)sulfamoyl)-4-ethylbenzoic acid]",< 500
